Target: T1, sproBACE1 (soluble human BACE1) (Homo sapiens, UniProt P56817)
T1 construct: sBACE1, corresponding to amino acids 1-454; made in house; host or cells: Sf9 insect cells (baculovirus), secreted into the medium
Assay: Peptide Hydrolysis Assay (HTRF, EuK-biotin labeled APPsw substrate)
Assay type: biochemical
Settings: 7 nM sproBACE1, APPsw substrate, pH 5.0, 3 hr at 30° C., HTRF 665/620 ratio
Excerpt: A predicted soluble form of human BACE1 (sBACE1, corresponding to amino acids 1-454) was generated from the full length BACE1 cDNA (full length human BACE1 cDNA in pCDNA4/mycHisA construct; University of Toronto) by PCR using the advantage-GC cDNA PCR kit (Clontech, Palo Alto, Calif.). A HindIII/Pmel fragment from pCDNA4-sBACE1myc/His was blunt ended using Klenow and subcloned into the Stu I site of pFASTBACI(A) (Invitrogen). A sBACE1mycHis recombinant bacmid was generated by transposition in DH10Bac cells(GIBCO/BRL). Subsequently, the sBACE1mycHis bacmid construct was transfected into sf9 cells using CellFectin (Invitrogen, San Diego, Calif.) in order to generate recombinant baculovirus. […]
Proteins, were eluted from the Q-sepharose column with Buffer B (20 mM HEPES, pH 8.0, 500 mM NaCl). […] Peak protein fractions as determined by the Bradford Assay (Biorad, Calif.) were concentrated using a Centricon 30 concentrator (Millipore). sBACE1 purity was estimated to be ˜90% as assessed by SDS-PAGE and Commassie Blue staining. […]
IC50 determinations for inhibitors, (I), were determined by measuring the percent change of the relative fluorescence at 665 nm divided by the relative fluorescence at 620 nm, (665/620 ratio), in the presence of varying concentrations of I and a fixed concentration of enzyme and substrate. […]

T1 sequence (P56817 22-454): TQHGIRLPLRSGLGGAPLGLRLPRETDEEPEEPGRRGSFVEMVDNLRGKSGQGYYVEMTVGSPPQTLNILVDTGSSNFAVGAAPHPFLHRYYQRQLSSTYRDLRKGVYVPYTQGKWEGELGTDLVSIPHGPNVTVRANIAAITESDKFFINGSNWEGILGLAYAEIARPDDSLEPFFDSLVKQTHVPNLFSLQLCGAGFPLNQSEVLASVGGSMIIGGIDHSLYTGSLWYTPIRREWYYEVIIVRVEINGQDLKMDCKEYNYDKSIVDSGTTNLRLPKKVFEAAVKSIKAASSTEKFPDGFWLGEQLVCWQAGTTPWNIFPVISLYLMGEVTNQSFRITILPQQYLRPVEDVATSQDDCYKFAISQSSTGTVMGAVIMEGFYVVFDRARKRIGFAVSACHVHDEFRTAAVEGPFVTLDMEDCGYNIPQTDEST

- IC50: 1 nM
Compound: CCCCCN1CC(C(=O)NC(Cc2cc(F)cc(F)c2)[C@H](O)[C@@H]2NCCN(Cc3ccccc3)C2=O)N(Cc2ccccc2)C1=O (stereo partly shown) [Example 5FF]

Source: patent US7598250B2, “Cyclic amine BACE-1 inhibitors having a heterocyclic substituent” (Schering Corporation, priority 2003, dated 2009)
